Source: patent US12383626B2, “Polyoxazoline-drug conjugates with novel pharmacokinetic properties” (priority 2019, dated 2025)
“And” between values parts separate entries of the source, which are not always exact repeats. Identical values can stand only once.

Tests used:
[1] = Log P (n-octanol/water partitioning)
[2] = male, Sprague Dawley, rat, in vivo, sc, 0.5 mg/kg
Method: The plasma levels of drugs released into the blood stream were measured in rodent (Sprague Dawley rats) and non-human primates (Macaca fascicularis, cynomolgus monkeys) following single subcutaneous injections of their respective POZ conjugates with different linkers and drug loading wt %.
Male Sprague Dawley naive rats (age 8-9 weeks, weight 200-250 g) were acquired and placed in rat cages and allowed at least 3 days of acclimatization before the start of the dosing. Each test group contained 3 rats. The POZ conjugates were dissolved 5% dextrose injection and the pH of the solution was adjusted to about 4.0 with 0.1 N hydrochloric acid. Each animal received a single subcutaneous (SC) injection of test article solution equivalent to a dose of 1.5-1.6 mg/kg (based in drug equivalents) and at a volume of 1 mL/kg, and into the left flank using a 23 G BD precision glide needle. […] All blood samples were collected in pre-labeled BD Microtainer tubes containing NaF/disodium EDTA, gently mixed and placed in an ice batch. Plasma was harvested by centrifugation at 3000 rpm for 15 minutes at 4° C. Plasma aliquots of 100 μL were collected in separate tubes containing 10 μL of a solution of 3N HCl acid, gently mixed and immediately frozen and stored at −70° C.
The plasma samples were processed by the ‘protein crash’ method using cold acetonitrile.

[3] = physchem

## C=C(C)[C@@H]1CCC(C)=C[C@H]1c1c(O)cc(CCCCC)cc1O [Cannabidiol, cannabidiol]
[1]; at 25° C., free drug
  Log Poct/wat: 6.1

## CCCCCCC(C)(C)c1cc(O)c2c(c1)OC(C)(C)[C@H]1CC=C(CO)C[C@H]21 [Dexanabinol, dexanabinol]
[1]
  logP: 7.6

## CCCN(CCc1cccs1)[C@H]1CCc2c(O)cccc2C1 [Rotigotine, rotigotine]
[2]
  time to clear the body: less than 24 hours
[3]
  logP: 4.9

## CCCCCc1cc(O)c2c(c1)OC(C)(C)[C@@H]1CCC(C)=C[C@@H]21 [Δ^9-THC, d9-tetrahydrocannabinol]
[1]; free drug, listed as THC
  Log P: 7.2 and 7.0
